The subject of experiment [1] is c-MYC. As to the kind of experiment: Immunoblot of c-MYC levels in RS4;11 cells. It is filed as cell-based, human. The protocol: (§1) Photoactivatable degraders and inhibitors of BRD4, c-MYC levels were also affected.
The slight effect on c-MYC can be explained by inhibition of BRD4 with the (+)-JQ1 derivative PHOTAC-I-3 in the absence of targeted degradation.
(§2) Western Immunoblot Analysis. Rabbit monoclonal Antibodies for BRD4 (#13440), β-Actin (#4970) c-Myc (#5605) and Anti-rabbit IgG, HRP-linked Antibody (#7074) were purchased from Cell Signalling Technologies.
(§3) Cells were incubated with different concentrations of selected compounds. They were placed in a light-proof box and preirradiated for 1 min at 390 nm followed by 100 ms pulses every 10 s or were kept in the dark for 4 h.
(§4) Cultured cells were collected by centrifugation and washed twice with cold PBS. The supernatant was removed and each cell pellet was lysed in 100 μL NP40-Cell-Lysis Buffer+0.1% SDS+1 mM PMSF+ protease inhibitor cocktail (Sigma Aldrich) for 30 min on ice, with vortexing at 10-minute intervals. Afterwards, cells were centrifuged at 13.000 rpm for 10 min at 4° C. Samples were stored on ice and the supernatant was collected for protein concentration determination using a Thermofisher Scientific Pierce™ Coomassie Plus (Bradford) Assay Kit.
The samples were diluted each with 5 μL Laemmli sample buffer Invitrogen (NuPAGE LDS Sample Buffer 4×) and 1 μL DTT, heated at 95° C. for 5 min. […]

For experiment [2], the target named is T1, BRD4 (Homo sapiens, UniProt O60885). As to the kind of experiment: Western blot of BRD4 levels in RS4;11 cells. Also noted: endogenous in cells; host or cells: RS4;11 (ATCC CRL-1873). The format is cell-based. The protocol:
Next, the light dependence of targeted protein degradation was analyzed in RS4;11 cells by western blot analysis of the BET proteins BRD2-4 (FIG. 5). To this end, cells were treated with increasing concentrations of our lead compound, PHOTAC-I-3, for 4 h and pulse-irradiated with 390 nm light (100 ms every 10 s). […] The cereblon-dependent degradation was confirmed by a competition experiment (FIG. 5E), and further validated by siRNA knockdown of cereblon (FIG. 13).
as §2, §3, §4
The samples were diluted each with 5 μL Laemmli sample buffer Invitrogen (NuPAGE LDS Sample Buffer 4×) and 1 μL DTT, heated at 95° C. for 5 min. Respectively 20 μL of each sample was loaded in a lane of a Bio-Rad Mini-PROTEAN TGX precast Gel, 4-20%, used with tris-glycine SDS Running buffer. The gel ran 5 min at 50 V, then 35 min at 140 V. Next step was the electrotransfer to a polyvinylidene difluoride (PVDF) membrane which was carried out using an iBlot™ 2 Dry Blotting System set to the standard program. After the transfer, the membrane was washed with 25 mL TB ST for 5 min and subsequent incubated in 25 mL of blocking buffer (1×TBST+5% nonfat dry milk, Blotto, Santa Cruz Biotechnology) for 1 h at room temperature. The membrane was washed three times for 5 min each with 15 mL of TBST and incubated in a 10 mL antibody dilution buffer with gentle agitation at 4° C. overnight (Actin: 1:1000; c-MYC: 1:1000; BRD4: 1:1000). The next day, the membrane was washed again three times for 5 min each with 15 mL TBST, followed by incubation with anti-rabbit, HRP-linked antibody (1:2000) in 10 mL blocking buffer with gentle agitation for 1 h at room temperature. Afterwards, the membrane was washed three times for 5 min each with 15 mL TBST and then incubated in 10 mL of Clarity Max Western ECL Substrate solution for 5 min. Chemoluminescence imaging was performed on a Bio-Rad ChemiDoc™ Imaging System.
LED illumination. For illumination of the cells we used the cell disco system as previously described in the literature^[25]. 390 nm 5 mm LEDs were purchased from Roithner Lasertechnik. Cells were preirradiated for 1 min at 390 nm, followed by 100 ms pulses every 10 s in 96- or 6-well plates.
Background: In western blotting, separated proteins are transferred to a membrane and probed.

For experiment [3], the target named is T1, BRD4. As to the kind of experiment: Immunoblot of BRD4 degradation in MB-MDA-231 cells. It is filed as cell-based. More on the design: Immunoblot analysis after treatment of MB-MDA-231 cells with PHOTAC-I-3 for 18 h at different concentrations; endogenous in cells; host or cells: MB-MDA-231 (A10) and MB-MDA-468 (A11) (so in the source). To be noted: 18 h, 390 nm pulses vs dark. The protocol: FIG. 10 depicts an immunoblot analysis of PHOTAC-I-3 A) Immunoblot analysis after treatment of MB-MDA-231 cells with PHOTAC-I-3 for 18 h at different concentrations. Cells were either irradiated with 100 ms pulses of 390 nm light every 10 s (left) or kept the dark (right). B) Immunoblot analysis after treatment of MB-MDA-468 cells with PHOTAC-I-3 for 18 h at different concentrations. Cells were either irradiated with 100 ms pulses of 390 nm light every 10 s (left) or kept the dark (right). (MWM, molecular weight marker). C) Immunoblot of BRD4 degradation in RS4;11 cells, promoted by PHOTAC-I-3 (300 nM) after 1 minute of irradiation (100 ms every 10 s), highlighting sustained degradation at the applied dosage.
as §1

Entries after “also recorded” stand apart in the source; their conditions may differ.

For `COc1cc(/N=N/c2cccc3c2CN(C2CCC(=O)NC2=O)C3=O)cc(OC)c1OCC(=O)NCCCCNC(=O)C[C@@H]1N=C(c2ccc(Cl)cc2)c2c(sc(C)c2C)-n2c(C)nnc21` (stereo partly drawn) [PHOTAC-I-3, 2-((S)-4-(4-chlorophenyl)-2,3,9-trimethyl-6H-thieno[3,2-f][1,2,4]triazolo[4,3-a][1,4]diazepin-6-yl)-N-(4-(2-(4-((E)-(2-(2,6-dioxopiperidin-3-yl)-1-oxoisoindolin-4-yl)diazenyl)-2,6-dimethoxyphenoxy)acetamido)butyl)acetamide], in experiment [1] (390 nm pulse irradiation), the c-MYC downregulation result was “more pronounced when cells were pulse-irradiated; also recorded: c-MYC downregulation over 24 hours”. The c-MYC levels result in experiment [1] (in the dark) is “relatively little effect on c-MYC levels”. In experiment [2] (1 μM, 390 nm pulse irradiation, compared with BRD2 and BRD3), the “time dependence of BRD4 degradation” value was “degraded more slowly”. In addition, the “BRD4 degradation at high concentration (hook effect)” value in experiment [2] (10 μM, 4 h, 390 nm) is “less degradation”. Further, the BRD4 levels result in experiment [2] (4 h, 390 nm pulses (100 ms every 10 s)) is given as “pronounced decrease of BRD4 levels”. Moreover, in experiment [2] (activation for 1 min, 300 nM), the “BRD4 degradation in the dark after brief activation” value is reported as “Persistent degradation of BRD4”. Also, in experiment [3], the BRD4 degradation entry is listed as “light-dependent degradation of BRD4”.

Source of the values: US20220143183A1, “PHOTOSWITCHABLE PROTACS AND SYNTHESIS AND USES THEREOF” (New York University, priority 2019, published 2022).
